Data as given in ChEMBL document CHEMBL6083249, “The journey of p38 MAP kinase inhibitors: From bench to bedside in treating inflammatory diseases” (Eur J Med Chem, 2024).

Experiments:
[1] = molecular target: Protein kinase C alpha type (Homo sapiens, UniProt P17252); experiment: Inhibition of PKCalpha (unknown origin)
[2] = molecular target: Protein kinase C beta type (Homo sapiens, UniProt P05771); experiment: Inhibition of PKCbeta2 (unknown origin)
[3] = Oral bioavailability in ICR mouse at […] by LC-MS/MS analysis; assay type: ADME, organism-based; details: in vivo, dose 0.25 mg/kg
[4] = AUC in rat at 30 mg/kg, po; assay type: ADME, organism-based; details: in vivo
[5] = molecular target: Mitogen-activated protein kinase 3 (Homo sapiens, UniProt P27361); experiment: Inhibition of ERK1 (unknown origin)
[6] = molecular target: Mitogen-activated protein kinase kinase kinase 7 (Homo sapiens, UniProt O43318); experiment: Inhibition of TAK1 (unknown origin)
[7] = Oral bioavailability in rat at 2 mg/kg by LC-MS/MS analysis; assay type: ADME, organism-based; details: in vivo
THP-1 [8] = experiment: Anti-inflammatory activity in human THP-1 cells assessed as inhibition of IL-1beta protein expression incubated for 24 hrs by Western blot analysis; assay type: functional, cell-based; details: THP-1, 24 h
THP-1 [9] = experiment: Antiinflammatory activity against human THP-1 cells assessed as inhibition of LPS-induced TNF-alpha production; assay type: functional, cell-based
RAW264.7 = experiment: Anti-inflammatory activity in LPS-induced mouse RAW264.7 cells assessed as inhibition of IL-6 production; assay type: functional, cell-based
[10] = Oral bioavailability in Sprague-Dawley rat at 10 mg/kg by LC-MS analysis; assay type: ADME, organism-based; details: in vivo
[11] = Clearance in Sprague-Dawley rat at 10 mg/kg, iv by HPLC-MS analysis; assay type: ADME, organism-based; details: in vivo
[12] = Volume of distribution at steady state in Sprague-Dawley rat at 10 mg/kg, iv measured for 24 hrs by LC-MS/MS analysis; assay type: ADME, organism-based; details: in vivo, read-out: Vdss
[13] = Tmax in Wistar rat at 10 mg/kg, po by LC-MS/MS analysis; assay type: ADME, organism-based; details: in vivo
[14] = Cmax in Wistar rat at 10 mg/kg, po by LC-MS/MS analysis; assay type: ADME, organism-based; details: in vivo
[15] = Half life in Sprague-Dawley rat at 10 mg/kg, po by LC-MS analysis; assay type: ADME, organism-based; details: in vivo
[16] = AUC in Sprague-Dawley rat at 10 mg/kg, po measured for 24 hrs by LC-MS/MS analysis; assay type: ADME, organism-based; details: in vivo
[17] = molecular target: 3',5'-cyclic-AMP phosphodiesterase 4B (Homo sapiens, UniProt Q07343); experiment: Inhibition of PDE4B1 (unknown origin)
[18] = molecular target: 3',5'-cyclic-AMP phosphodiesterase 4C (Homo sapiens, UniProt Q08493); experiment: Inhibition of PDE4C (unknown origin)
[19] = molecular target: cGMP-inhibited 3',5'-cyclic phosphodiesterase 3A (Homo sapiens) (UniProt Q14432); experiment: Inhibition of PDE3A (unknown origin) at 10 uM relative to control
[20] = molecular target: cGMP-specific 3',5'-cyclic phosphodiesterase (Homo sapiens) (UniProt O76074); experiment: Inhibition of human PDE5 at 10 uM relative to control

3',5'-cyclic-AMP phosphodiesterase 4B, sequence (Q07343 whole entry): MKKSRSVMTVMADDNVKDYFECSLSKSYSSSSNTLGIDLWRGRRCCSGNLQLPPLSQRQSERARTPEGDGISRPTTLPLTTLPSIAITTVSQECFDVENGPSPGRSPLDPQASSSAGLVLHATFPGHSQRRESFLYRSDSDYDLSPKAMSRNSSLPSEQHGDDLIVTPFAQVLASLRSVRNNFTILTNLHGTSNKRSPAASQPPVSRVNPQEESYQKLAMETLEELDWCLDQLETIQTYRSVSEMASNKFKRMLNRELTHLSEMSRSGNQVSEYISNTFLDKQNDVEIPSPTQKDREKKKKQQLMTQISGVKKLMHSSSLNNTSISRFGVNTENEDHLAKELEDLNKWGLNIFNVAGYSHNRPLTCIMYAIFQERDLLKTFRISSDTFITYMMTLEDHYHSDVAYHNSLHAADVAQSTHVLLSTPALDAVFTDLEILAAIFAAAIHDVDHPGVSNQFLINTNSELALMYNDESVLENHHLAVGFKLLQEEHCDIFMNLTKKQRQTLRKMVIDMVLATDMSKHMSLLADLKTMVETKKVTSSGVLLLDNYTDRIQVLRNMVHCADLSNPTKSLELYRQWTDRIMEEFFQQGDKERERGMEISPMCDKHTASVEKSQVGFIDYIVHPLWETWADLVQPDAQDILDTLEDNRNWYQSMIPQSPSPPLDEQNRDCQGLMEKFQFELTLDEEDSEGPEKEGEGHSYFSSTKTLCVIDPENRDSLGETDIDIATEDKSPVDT
cGMP-inhibited 3',5'-cyclic phosphodiesterase 3A (Homo sapiens), sequence (Q14432 whole entry): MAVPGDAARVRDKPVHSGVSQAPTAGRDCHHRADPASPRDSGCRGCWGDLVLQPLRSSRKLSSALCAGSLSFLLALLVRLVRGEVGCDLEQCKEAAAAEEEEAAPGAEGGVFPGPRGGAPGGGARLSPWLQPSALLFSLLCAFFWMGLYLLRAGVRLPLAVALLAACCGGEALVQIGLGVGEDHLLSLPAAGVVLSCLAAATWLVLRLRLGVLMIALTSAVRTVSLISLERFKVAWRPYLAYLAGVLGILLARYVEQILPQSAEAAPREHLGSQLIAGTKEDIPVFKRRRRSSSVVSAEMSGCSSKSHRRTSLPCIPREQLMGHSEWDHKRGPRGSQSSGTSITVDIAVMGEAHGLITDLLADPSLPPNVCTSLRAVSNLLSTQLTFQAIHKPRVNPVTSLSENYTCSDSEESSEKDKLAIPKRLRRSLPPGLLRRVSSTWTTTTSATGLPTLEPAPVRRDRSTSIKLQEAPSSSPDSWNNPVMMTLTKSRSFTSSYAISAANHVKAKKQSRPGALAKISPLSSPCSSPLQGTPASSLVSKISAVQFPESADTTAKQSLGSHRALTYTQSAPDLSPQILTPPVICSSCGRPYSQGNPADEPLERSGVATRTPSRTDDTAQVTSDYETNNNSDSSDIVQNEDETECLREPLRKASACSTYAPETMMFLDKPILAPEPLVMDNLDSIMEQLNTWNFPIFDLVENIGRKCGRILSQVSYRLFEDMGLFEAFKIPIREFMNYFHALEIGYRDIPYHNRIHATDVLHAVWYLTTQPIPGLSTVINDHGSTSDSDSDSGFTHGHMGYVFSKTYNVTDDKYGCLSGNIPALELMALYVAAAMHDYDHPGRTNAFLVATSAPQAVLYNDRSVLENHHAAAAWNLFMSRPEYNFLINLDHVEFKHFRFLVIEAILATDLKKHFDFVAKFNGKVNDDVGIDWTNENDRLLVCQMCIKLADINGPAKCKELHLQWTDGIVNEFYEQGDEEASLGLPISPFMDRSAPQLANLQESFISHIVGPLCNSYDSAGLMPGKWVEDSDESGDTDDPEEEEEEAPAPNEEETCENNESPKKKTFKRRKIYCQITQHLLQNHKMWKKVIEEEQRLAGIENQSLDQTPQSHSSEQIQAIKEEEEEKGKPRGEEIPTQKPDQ
Mitogen-activated protein kinase 3, sequence (P27361 whole entry): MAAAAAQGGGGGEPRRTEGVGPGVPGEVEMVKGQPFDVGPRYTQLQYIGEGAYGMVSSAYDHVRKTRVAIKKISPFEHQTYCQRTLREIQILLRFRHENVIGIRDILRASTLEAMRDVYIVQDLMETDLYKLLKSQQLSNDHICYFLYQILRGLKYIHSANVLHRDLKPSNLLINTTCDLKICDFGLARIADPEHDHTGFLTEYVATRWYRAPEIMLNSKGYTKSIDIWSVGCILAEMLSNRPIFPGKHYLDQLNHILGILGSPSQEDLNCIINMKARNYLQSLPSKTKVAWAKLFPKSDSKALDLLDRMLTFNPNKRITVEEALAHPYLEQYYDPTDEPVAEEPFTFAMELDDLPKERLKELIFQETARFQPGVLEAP
3',5'-cyclic-AMP phosphodiesterase 4C, sequence (Q08493 whole entry): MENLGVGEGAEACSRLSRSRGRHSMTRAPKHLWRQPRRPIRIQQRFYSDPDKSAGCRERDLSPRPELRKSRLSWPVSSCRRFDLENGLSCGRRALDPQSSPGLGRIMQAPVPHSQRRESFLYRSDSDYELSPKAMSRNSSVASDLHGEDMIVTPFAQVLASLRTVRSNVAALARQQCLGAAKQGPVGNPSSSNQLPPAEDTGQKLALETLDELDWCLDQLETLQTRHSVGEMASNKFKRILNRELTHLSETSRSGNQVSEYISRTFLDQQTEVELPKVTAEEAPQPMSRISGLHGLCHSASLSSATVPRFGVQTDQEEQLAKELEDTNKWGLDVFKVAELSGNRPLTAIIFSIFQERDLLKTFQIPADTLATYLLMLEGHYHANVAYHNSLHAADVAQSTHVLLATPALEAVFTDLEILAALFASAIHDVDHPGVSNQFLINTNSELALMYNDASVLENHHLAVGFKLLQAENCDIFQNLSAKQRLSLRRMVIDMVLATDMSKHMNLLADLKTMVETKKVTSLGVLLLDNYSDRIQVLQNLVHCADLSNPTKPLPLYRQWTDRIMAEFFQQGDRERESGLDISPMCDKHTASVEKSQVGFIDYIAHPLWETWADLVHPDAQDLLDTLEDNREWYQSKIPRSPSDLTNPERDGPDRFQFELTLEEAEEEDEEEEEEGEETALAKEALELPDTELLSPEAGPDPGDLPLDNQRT
Protein kinase C beta type, sequence (P05771 whole entry): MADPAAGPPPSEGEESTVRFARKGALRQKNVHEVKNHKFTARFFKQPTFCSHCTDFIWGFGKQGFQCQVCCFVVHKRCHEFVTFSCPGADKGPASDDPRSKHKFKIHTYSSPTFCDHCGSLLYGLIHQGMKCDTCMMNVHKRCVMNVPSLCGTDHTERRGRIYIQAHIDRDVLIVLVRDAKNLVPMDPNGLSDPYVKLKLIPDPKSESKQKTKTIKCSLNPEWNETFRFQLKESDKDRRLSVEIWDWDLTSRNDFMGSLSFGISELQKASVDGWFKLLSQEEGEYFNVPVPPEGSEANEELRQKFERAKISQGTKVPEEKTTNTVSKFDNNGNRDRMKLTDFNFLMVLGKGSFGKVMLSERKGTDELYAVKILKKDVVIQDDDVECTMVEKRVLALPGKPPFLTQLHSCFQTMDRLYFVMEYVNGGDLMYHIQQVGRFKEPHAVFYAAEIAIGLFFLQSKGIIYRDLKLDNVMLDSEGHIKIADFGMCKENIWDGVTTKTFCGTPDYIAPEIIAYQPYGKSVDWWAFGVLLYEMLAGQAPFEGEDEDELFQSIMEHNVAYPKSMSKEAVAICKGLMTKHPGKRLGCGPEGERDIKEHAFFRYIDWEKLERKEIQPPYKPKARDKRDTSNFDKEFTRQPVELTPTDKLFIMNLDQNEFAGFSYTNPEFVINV
Mitogen-activated protein kinase kinase kinase 7, sequence (O43318 whole entry): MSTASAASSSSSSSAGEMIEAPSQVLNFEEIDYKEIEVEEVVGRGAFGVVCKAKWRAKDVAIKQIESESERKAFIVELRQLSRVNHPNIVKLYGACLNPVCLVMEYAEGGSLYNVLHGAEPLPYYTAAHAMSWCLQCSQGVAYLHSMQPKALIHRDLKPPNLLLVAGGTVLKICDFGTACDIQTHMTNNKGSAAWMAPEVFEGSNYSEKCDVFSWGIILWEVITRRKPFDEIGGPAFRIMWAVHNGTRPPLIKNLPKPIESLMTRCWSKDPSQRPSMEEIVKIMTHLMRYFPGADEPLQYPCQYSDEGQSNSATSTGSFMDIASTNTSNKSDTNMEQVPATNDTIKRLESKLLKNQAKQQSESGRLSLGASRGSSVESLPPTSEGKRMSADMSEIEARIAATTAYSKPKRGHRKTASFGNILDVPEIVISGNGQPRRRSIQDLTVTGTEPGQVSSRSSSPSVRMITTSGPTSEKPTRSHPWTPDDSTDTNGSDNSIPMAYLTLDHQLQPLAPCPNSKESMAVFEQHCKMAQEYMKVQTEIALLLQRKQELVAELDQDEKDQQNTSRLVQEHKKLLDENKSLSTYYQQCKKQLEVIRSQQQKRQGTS

## C[S+]([O-])c1ccc(-c2nc(-c3ccncc3)c(-c3ccc(F)cc3)[nH]2)cc1 (stereo unspecified) [SB-203580]
[1]
  IC50: > 100 µM
[2]
  IC50: > 50 µM

## Cc1c(F)cc(C(=O)NC2CC2)cc1-c1ccc(C(=O)NCC(C)(C)C)cn1 [LOSMAPIMOD]
[3]
  bioavailability: 51%
[4]
  AUC: 220 ng·h/mL

## CCc1nc(-c2cccc(C)c2)c(-c2ccnc(NC(=O)c3ccccc3)c2)s1 [TAK-715]
[5]
  IC50: > 10 µM
[6]
  IC50: > 10 µM
[7]
  bioavailability: 21.1%

## Cn1c(=O)c(Oc2ccc(F)cc2F)cc2cnc(NC(CCO)CCO)nc21 [PAMAPIMOD]
THP-1 [8]
  IC50: 0.1 µM
THP-1 [9]
  IC50: 0.3 µM
RAW264.7
  EC50: 0.05 µM
[10]
  bioavailability: 80.1%
[11]
  clearance: 21 mL/min/kg
[12]
  Vd: 3.56 L/kg
[13]
  Tmax: 0.5 h
[14]
  Cmax: 1340 ng/mL
[15]
  half-life: 4.04 h
[16]
  AUC: 3.13 µg/h/mL

## Cn1c([S+](C)[O-])nc(-c2ccc(F)cc2)c1-c1ccnc(N)c1 (stereo unspecified)
[17]
  IC50: 3.5 µM
[18]
  IC50: > 10 µM
[19]
  inhibition: 30%
[20]
  inhibition: 30%
